Data: US7326727B2, “Furanthiazole derivatives as heparanase inhibitors” (Oxford Glycosciences (UK) Ltd., priority 2002, dated 2008)
pIC50: −log10 of the molar value.

System: human endothelial cells
Test: Angiogenesis assay (AngioKit, tubule formation by PECAM-1 staining)
Assay type: cell-based
Conditions: Endothelial cell, 264 h, AngioKit co-culture, tubule formation on day 11, PECAM-1 staining relative to untreated control
Text: Angiogenesis Assay: A commercial angiogenesis assay for analysing the angiogenic or anti-angiogenic properties of test compounds (AngioKit catalogue no. ZHA-1000, TCS CellWorks Ltd, Buckingham, U.K) was used. In this assay, human endothelial cells were co-cultured with other human cells in a specifically designed medium. The endothelial cells initially form small islands within the culture matrix. They subsequently proliferate and then enter a migratory phase during which they move through the matrix to form threadlike tubule structures. These gradually join up (by 12-14 days) to form networks of […] tubules which closely resemble a capillary bed structure. These tubules stain positive for von Willebrand's Factor, Platelet Endothelial Cell Adhesion Molecule-1 (PECAM-1 or CD31) and Intercellular Adhesion Molecule-2 (ICAM-2).
The assay is supplied as growing cultures at the earliest stage of tubule formation in a 24 well plate format. It is designed so that test compounds and conditioned media can be added to the cultures within individual wells. The resulting effect on tubule formation can then be monitored. Positive and negative test agents are provided in the kit, e.g. Vascular Endothelial Growth Factor (VEGF) and sumarin. All reagents were included as part of the kit and the assay was performed according to the protocol supplied by TCS CellWorks Ltd. Briefly, on day 1, fresh growth medium, medium plus control agent or medium plus test compound was added to the cells and the cultures were incubated at 37° C., 5% CO2. […] The specified medium was changed at days 4, 7 and 9 and the cells were monitored for growth. On day 11, the cells were washed with Dulbecco's Phosphate-Buffered Saline (PBS) and fixed using 70% ethanol (−20° C.) for 30 min at room temperature. After fixing, the cells were washed and treated with blocking buffer, 1% BSA in PBS. The cells were stained for PECAM-1 on the same day, following standard immunohistochemistry procedures well known to those skilled in the art, using mouse anti-human CD31 as the primary antibody and a goat anti-mouse IgG alkaline […] conjugate. Tubule formation was quantitatively assessed by measuring PECAM-1 positive staining using the image analysis program “Matrox inspector” to evaluate the percentage tubule staining relative to an untreated control.

Compound | pIC50
O=C(O)Cc1nc(-c2ccc(-c3ccc(NC(=O)c4ccc(OC(F)(F)F)cc4)cc3)o2)cs1 [Example 4] | 6.70
O=C(O)Cc1nc(-c2ccc(-c3ccc(NC(=O)/C=C/c4ccc(Br)cc4)cc3Cl)o2)cs1 [Example 5, 2-[4-[5-[2-Chloro-4-[3-(4-bromo)phenylacryloylamino]phenyl]furan-2-yl]-1,3-thiazol-2-yl]acetic acid] | 6.00
O=C(O)Cc1nc(-c2ccc(-c3ccc(NC(=O)/C=C/c4ccc(Cl)cc4Cl)cc3Cl)o2)cs1 [Example 6, 2-[4-[5-[2-Chloro-4-[3-(2,4-dichloro)phenylacryloylamino]phenyl]furan-2-yl]1,3-thiazol-2-yl]acetic acid] | 6.30
O=C(O)Cc1nc(-c2ccc(-c3ccc(NC(=O)C=Cc4ccccc4)cc3Cl)o2)cs1 [Example 8, 2-[4-[5-[2-Chloro-4-(3-phenylacryloylamino)phenyl]furan-2-yl]-1,3-thiazol-2-yl]acetic acid] | 4.82
O=C(O)Cc1nc(-c2ccc(-c3ccc(NC(=O)c4cc5ccccc5s4)cc3Cl)o2)cs1 [Example 11, 2-[4-[5-[2-Chloro-4-[(benzothiophene-2-carbonyl)amino]phenyl]furan-2-yl]-1,3-thiazol-2-yl]acetic acid] | 4.70
O=C(O)Cc1nc(-c2ccc(-c3ccc(NC(=O)c4ccc(Cl)c(Cl)c4)cc3Cl)o2)cs1 [Example 18, 2-[4-[5-[2-Chloro-4-[(3,4-dichlorophenylcarbonyl)amino]phenyl]furan-2-yl]-1,3-thiazol-2-yl]acetic acid] | 5.00
O=C(O)Cc1nc(-c2ccc(-c3ccc(NC(=O)c4ccc(OC(F)(F)F)cc4)cc3Cl)o2)cs1 [Example 22, 2-[4-[5-[2-Chloro-4-[(4-trifluoromethoxyphenylcarbonyl)amino]phenyl]furan-2-yl]-1,3-thiazol-2-yl]acetic acid] | 6.30

Target: T1, human heparanase (Homo sapiens, UniProt Q9Y251)
T1 sequence (Q9Y251 158-543 limits assumed): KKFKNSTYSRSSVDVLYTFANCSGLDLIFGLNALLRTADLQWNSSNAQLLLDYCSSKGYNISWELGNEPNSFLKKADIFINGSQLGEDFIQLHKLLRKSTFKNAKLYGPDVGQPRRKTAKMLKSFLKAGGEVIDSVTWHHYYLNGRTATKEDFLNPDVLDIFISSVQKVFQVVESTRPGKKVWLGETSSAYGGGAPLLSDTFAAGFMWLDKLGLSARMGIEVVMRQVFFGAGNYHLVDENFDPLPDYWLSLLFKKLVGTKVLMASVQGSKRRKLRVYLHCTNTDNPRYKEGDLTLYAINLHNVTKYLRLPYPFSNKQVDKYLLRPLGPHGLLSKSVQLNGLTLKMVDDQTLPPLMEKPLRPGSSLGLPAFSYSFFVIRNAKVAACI
T1 sequence (Q9Y251 36-109 limits assumed): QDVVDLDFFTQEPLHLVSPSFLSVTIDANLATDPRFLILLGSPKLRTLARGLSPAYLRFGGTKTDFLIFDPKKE
Test: Heparanase assay (bFGF binding to heparan sulphate, 96-well plate)
Assay type: biochemical
Conditions: 2 h at 37° C., pH 5.5, read-out: Inhibition of Heparanase (IC50)
Method: Heparanase assay: The assay is based upon the use of the specific binding of basic fibroblast growth factor (bFGF) to heparan sulphate. Heparan sulphate can be detected via binding of bFGF using a horse radish peroxidase-conjugated bFGF antibody.
Nunc Maxisorp 96-well plates are coated for 16 h at RT with 100 μl/well 0.04 mg/ml heparan sulphate in PBS. The wells are then aspirated and blocked for 1 h with 200 μl/well 1% BSA-PBS. Following five washes with 0.01% BSA, 0.05% Tween20 PBS (wash buffer), 100 μl of recombinant human basic FGF (90 ng/ml in 0.1% BSA/PBS) is added per well and the plate is incubated at room temperature for 1 h.
After a further five washes with the wash buffer, 10 μl of test compound (in 10% DMSO) and 90 μl of human heparanase in 100 mM Sodium acetate, 5 mM CaCl2, pH 5.5 are added to each well and the plate incubated for 2 h at 37° C. The wells are washed again with wash buffer and 100 μl of bFGF antibody-horse radish peroxidase conjugate added. The plate is incubated at room temperature for 1 h and washed again five times with wash buffer. 100 μl of TMB peroxidase substrate is added and the colour allowed to develop for 10 min. The reaction is stopped with 50 μl 1M H2SO4 and the colour read at 450 nm on a plate reader.

pIC50 | Compound
6.40 | O=C(O)Cc1nc(-c2ccc(-c3ccc(NC(=O)c4cc5ccccc5s4)cc3Cl)o2)cs1 [Example 11, 2-[4-[5-[2-Chloro-4-[(benzothiophene-2-carbonyl)amino]phenyl]furan-2-yl]-1,3-thiazol-2-yl]acetic acid]
5.15 | COc1cccc(C(=O)Nc2ccc(-c3ccc(-c4csc(CC(=O)O)n4)o3)c(Cl)c2)c1 [Example 21, 2-[4-[5-[2-Chloro-4-[(3-methoxyphenylcarbonyl)amino]phenyl]furan-2-yl]-1,3-thiazol-2-yl]acetic acid]

Compound | pIC50
2-[4-[5-[2-Chloro-4-[3-(3,5-bistrifluoromethyl)phenylacryloylamino]phenyl]furan-2-yl]-1,3-thiazol-2-yl]acetic acid [Example 7] | 6.40
